According to ChEMBL document CHEMBL6103575, “Design, synthesis and evaluation of (E)-1-(4-(2-(1H-pyrazol-5-yl)vinyl)phenyl) derivatives as next generation selective RET inhibitors overcoming RET solvent front mutations (G810C/R)” (Eur J Med Chem, 2025):

Experiments:
[1] = Induction of cell cycle arrest in mouse BaF3 cells harboring CCDC6-RET G810C mutant assessed as accumulation of cells at G2/M phase at 100 nM incubated for 24 hrs by propidium iodide staining based analysis (reference value: 34.75%); type: functional
[2] = Induction of cell cycle arrest in mouse BaF3 cells harboring CCDC6-RET assessed as accumulation of cells at S phase at 300 nM incubated for 24 hrs by propidium iodide staining based analysis (reference value: 13.27%); type: functional
[3] = Induction of cell cycle arrest in mouse BaF3 cells harboring CCDC6-RET assessed as accumulation of cells at G2/M phase at 300 nM incubated for 24 hrs by propidium iodide staining based analysis (reference value: 34.11%); type: functional
[4] = Induction of apoptosis in mouse BaF3 cells harboring CCDC6-RET G810C mutant assessed as viable cells at 10 nM incubated for 48 hrs by Annexin V-PE staining based flow cytometry analysis (Rvb =86.47%); type: functional; conditions: read-out: Activity
[5] = Induction of apoptosis in mouse BaF3 cells harboring CCDC6-RET G810R mutant assessed as viable cells at 30 nM incubated for 48 hrs by Annexin V-PE staining based flow cytometry analysis (Rvb =86.40%); type: functional; conditions: read-out: Activity
[6] = molecular target: Platelet-derived growth factor receptor alpha (Homo sapiens, UniProt P16234); assay: Inhibition of PDGFRalpha (unknown origin) at 1 uM relative to control
[7] = Induction of cell cycle arrest in mouse BaF3 cells harboring CCDC6-RET G810R mutant assessed as accumulation of cells at S phase at 30 nM incubated for 24 hrs by propidium iodide staining based analysis (reference value: 13.66%); type: functional
[8] = Induction of cell cycle arrest in mouse BaF3 cells harboring CCDC6-RET G810C mutant assessed as accumulation of cells at G0/G1 phase at 100 nM incubated for 24 hrs by propidium iodide staining based analysis (reference value: 52.11%); type: functional
BaF3 = assay: Inhibition of SHC phosphorylation in mouse BaF3 cells harboring CCDC6-RET G810C mutant incubated for 12 hrs by Western blotting analysis; type: cell-based; conditions: dose <= 300.0 nM
[9] = molecular target: Proto-oncogene tyrosine-protein kinase receptor Ret (Homo sapiens, UniProt P07949, V804M); assay: Inhibition of RET (unknown origin) V804M mutant
[10] = Induction of cell cycle arrest in mouse BaF3 cells harboring CCDC6-RET assessed as accumulation of cells at G2/M phase at 30 nM incubated for 24 hrs by propidium iodide staining based analysis (reference value: 34.11%); type: functional
[11] = Induction of apoptosis in mouse BaF3 cells harboring CCDC6-RET G810C mutant assessed as early apoptotic cells at 30 nM incubated for 48 hrs by Annexin V-PE staining based flow cytometry analysis (Rvb =8.74%); type: functional
[12] = Induction of apoptosis in mouse BaF3 cells harboring CCDC6-RET G810C mutant assessed as late apoptotic cells at 30 nM incubated for 48 hrs by Annexin V-PE staining based flow cytometry analysis (Rvb =4.30%); type: functional
[13] = Induction of apoptosis in mouse BaF3 cells harboring CCDC6-RET assessed as viable cells at 10 nM incubated for 48 hrs by Annexin V-PE staining based flow cytometry analysis (Rvb =91.16%); type: functional; conditions: read-out: Activity
[14] = Induction of apoptosis in mouse BaF3 cells harboring CCDC6-RET G810C mutant assessed as necrotic cells at 300 nM incubated for 48 hrs by Annexin V-PE staining based flow cytometry analysis (Rvb =0.48%); type: functional
[15] = Induction of cell cycle arrest in mouse BaF3 cells harboring CCDC6-RET G810C mutant assessed as accumulation of cells at G2/M phase at 300 nM incubated for 24 hrs by propidium iodide staining based analysis (reference value: 34.75%); type: functional
[16] = Induction of cell cycle arrest in mouse BaF3 cells harboring CCDC6-RET G810R mutant assessed as accumulation of cells at S phase at 100 nM incubated for 24 hrs by propidium iodide staining based analysis (reference value: 13.66%); type: functional
[17] = Induction of apoptosis in mouse BaF3 cells harboring CCDC6-RET G810R mutant assessed as necrotic cells at 100 nM incubated for 48 hrs by Annexin V-PE staining based flow cytometry analysis (Rvb =0.30%); type: functional
[18] = Induction of cell cycle arrest in mouse BaF3 cells harboring CCDC6-RET G810R mutant assessed as accumulation of cells at G2/M phase at 10 nM incubated for 24 hrs by propidium iodide staining based analysis (reference value: 33.61%); type: functional
[19] = molecular target: Proto-oncogene tyrosine-protein kinase receptor Ret (Homo sapiens, UniProt P07949, G810C); assay: Inhibition of RET (unknown origin) G810C mutant
[20] = Induction of apoptosis in mouse BaF3 cells harboring CCDC6-RET G810C mutant assessed as necrotic cells at 10 nM incubated for 48 hrs by Annexin V-PE staining based flow cytometry analysis (Rvb =0.48%); type: functional
[21] = Induction of apoptosis in mouse BaF3 cells harboring CCDC6-RET assessed as late apoptotic cells at 300 nM incubated for 48 hrs by Annexin V-PE staining based flow cytometry analysis (Rvb =2.44%); type: functional
[22] = Induction of apoptosis in mouse BaF3 cells harboring CCDC6-RET assessed as early apoptotic cells at 100 nM incubated for 48 hrs by Annexin V-PE staining based flow cytometry analysis (Rvb =6.21%); type: functional
[23] = molecular target: Proto-oncogene tyrosine-protein kinase receptor Ret (Homo sapiens, UniProt P07949); assay: Inhibition of RET (unknown origin) at 1 uM relative to control
[24] = Induction of apoptosis in mouse BaF3 cells harboring CCDC6-RET G810C mutant assessed as late apoptotic cells at 100 nM incubated for 48 hrs by Annexin V-PE staining based flow cytometry analysis (Rvb =4.30%); type: functional
[25] = Induction of cell cycle arrest in mouse BaF3 cells harboring CCDC6-RET G810R mutant assessed as accumulation of cells at S phase at 10 nM incubated for 24 hrs by propidium iodide staining based analysis (reference value: 13.66%); type: functional
[26] = Induction of cell cycle arrest in mouse BaF3 cells harboring CCDC6-RET G810R mutant assessed as accumulation of cells at G2/M phase at 30 nM incubated for 24 hrs by propidium iodide staining based analysis (reference value: 33.61%); type: functional
[27] = Induction of apoptosis in mouse BaF3 cells harboring CCDC6-RET G810R mutant assessed as necrotic cells at 10 nM incubated for 48 hrs by Annexin V-PE staining based flow cytometry analysis (Rvb =0.30%); type: functional
[28] = Induction of cell cycle arrest in mouse BaF3 cells harboring CCDC6-RET G810R mutant assessed as accumulation of cells at G2/M phase at 300 nM incubated for 24 hrs by propidium iodide staining based analysis (reference value: 33.61%); type: functional

Chain of Proto-oncogene tyrosine-protein kinase receptor Ret (Homo sapiens, UniProt P07949) (P07949 whole entry): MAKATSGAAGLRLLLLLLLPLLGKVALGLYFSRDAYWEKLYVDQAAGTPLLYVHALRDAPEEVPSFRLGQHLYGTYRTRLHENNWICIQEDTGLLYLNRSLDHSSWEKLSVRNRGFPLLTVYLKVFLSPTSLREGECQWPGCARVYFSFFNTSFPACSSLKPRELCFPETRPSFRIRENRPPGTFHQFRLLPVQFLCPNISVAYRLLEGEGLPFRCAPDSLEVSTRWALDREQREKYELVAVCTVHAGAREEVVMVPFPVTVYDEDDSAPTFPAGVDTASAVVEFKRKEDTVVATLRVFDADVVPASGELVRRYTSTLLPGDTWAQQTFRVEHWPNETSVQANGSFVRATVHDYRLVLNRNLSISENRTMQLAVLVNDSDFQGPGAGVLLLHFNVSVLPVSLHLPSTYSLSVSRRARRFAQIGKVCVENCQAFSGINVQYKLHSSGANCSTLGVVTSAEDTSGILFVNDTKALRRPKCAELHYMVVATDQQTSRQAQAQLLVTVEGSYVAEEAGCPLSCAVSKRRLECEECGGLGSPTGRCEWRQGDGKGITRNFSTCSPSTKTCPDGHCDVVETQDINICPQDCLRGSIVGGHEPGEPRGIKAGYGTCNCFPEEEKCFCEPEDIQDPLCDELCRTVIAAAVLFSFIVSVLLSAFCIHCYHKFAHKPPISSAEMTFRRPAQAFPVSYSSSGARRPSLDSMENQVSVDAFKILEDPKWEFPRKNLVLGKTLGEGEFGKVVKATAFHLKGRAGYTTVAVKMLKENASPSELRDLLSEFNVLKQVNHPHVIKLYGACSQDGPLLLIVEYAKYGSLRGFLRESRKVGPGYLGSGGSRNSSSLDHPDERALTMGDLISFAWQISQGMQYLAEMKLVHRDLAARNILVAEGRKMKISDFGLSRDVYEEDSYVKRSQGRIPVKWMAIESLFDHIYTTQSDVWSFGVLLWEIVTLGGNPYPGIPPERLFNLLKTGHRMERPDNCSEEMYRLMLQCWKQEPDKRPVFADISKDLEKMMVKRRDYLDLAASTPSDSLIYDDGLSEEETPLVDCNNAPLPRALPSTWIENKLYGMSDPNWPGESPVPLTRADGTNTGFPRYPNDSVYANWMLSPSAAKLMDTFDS
Chain of Proto-oncogene tyrosine-protein kinase receptor Ret (Homo sapiens, UniProt P07949, V804M) (P07949 29-1114 V804M limits assumed): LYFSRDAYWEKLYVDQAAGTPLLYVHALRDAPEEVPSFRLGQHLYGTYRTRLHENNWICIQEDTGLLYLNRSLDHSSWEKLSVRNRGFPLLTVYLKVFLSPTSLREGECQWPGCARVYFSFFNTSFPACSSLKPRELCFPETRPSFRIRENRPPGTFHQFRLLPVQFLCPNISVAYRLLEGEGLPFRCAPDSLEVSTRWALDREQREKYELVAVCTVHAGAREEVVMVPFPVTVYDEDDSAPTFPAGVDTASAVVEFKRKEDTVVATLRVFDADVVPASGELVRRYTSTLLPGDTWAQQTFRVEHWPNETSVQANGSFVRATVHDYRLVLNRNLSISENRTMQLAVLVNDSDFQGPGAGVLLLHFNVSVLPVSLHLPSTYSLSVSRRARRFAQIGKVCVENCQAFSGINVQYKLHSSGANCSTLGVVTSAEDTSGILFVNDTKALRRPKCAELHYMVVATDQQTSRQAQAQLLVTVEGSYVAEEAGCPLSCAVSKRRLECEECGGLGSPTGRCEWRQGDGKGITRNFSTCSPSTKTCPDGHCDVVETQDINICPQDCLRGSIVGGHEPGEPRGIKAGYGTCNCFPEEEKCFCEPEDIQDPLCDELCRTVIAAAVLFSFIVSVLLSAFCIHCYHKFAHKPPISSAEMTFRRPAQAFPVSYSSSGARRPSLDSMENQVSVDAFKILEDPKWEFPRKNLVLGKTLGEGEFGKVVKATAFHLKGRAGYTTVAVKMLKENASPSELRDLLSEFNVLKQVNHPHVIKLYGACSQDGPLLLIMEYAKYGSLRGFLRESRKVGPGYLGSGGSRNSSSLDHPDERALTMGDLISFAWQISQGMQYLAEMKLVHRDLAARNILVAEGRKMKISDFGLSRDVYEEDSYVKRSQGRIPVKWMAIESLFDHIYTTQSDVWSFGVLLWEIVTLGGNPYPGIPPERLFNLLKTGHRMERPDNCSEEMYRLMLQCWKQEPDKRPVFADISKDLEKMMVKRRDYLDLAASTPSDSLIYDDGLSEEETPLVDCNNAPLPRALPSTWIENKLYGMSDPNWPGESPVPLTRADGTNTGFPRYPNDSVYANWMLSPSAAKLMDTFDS
Chain of Platelet-derived growth factor receptor alpha (P16234 whole entry): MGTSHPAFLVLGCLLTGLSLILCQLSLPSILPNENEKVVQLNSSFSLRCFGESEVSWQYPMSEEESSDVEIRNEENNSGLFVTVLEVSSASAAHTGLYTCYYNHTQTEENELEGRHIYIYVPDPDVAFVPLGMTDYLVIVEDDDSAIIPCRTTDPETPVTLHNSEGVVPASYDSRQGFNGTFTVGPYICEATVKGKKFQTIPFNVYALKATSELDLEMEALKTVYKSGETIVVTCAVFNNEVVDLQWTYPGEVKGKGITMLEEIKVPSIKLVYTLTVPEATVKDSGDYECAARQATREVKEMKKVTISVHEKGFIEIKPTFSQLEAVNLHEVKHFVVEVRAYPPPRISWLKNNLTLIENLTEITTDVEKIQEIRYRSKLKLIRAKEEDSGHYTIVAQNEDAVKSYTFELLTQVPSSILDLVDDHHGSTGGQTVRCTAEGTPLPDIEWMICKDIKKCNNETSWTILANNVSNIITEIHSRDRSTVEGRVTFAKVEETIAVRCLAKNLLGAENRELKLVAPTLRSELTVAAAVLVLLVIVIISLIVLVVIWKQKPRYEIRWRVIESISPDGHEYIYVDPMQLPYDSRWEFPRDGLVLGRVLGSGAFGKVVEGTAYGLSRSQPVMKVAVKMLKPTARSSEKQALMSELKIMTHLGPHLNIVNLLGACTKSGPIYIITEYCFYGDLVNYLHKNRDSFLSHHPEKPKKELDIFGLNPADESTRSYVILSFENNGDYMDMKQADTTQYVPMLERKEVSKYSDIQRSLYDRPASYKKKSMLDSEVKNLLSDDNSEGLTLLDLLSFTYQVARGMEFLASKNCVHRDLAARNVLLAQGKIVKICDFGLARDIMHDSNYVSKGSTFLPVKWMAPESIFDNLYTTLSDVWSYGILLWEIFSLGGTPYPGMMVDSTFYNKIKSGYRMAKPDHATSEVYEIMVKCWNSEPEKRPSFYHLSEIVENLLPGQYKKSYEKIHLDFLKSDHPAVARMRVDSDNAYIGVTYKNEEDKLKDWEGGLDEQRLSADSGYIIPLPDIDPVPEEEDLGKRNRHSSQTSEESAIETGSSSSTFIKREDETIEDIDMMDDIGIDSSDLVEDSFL
Chain of Proto-oncogene tyrosine-protein kinase receptor Ret (Homo sapiens, UniProt P07949, G810C) (P07949 29-1114 G810C limits assumed): as the sequence (P07949 29-1114 V804M limits assumed) above, with M776V, G782C counted along it

SMILES: COc1cncc(-c2cn[nH]c2/C=C/c2ccc(NC(=O)Nc3cc(C(C)(C)C(F)(F)F)on3)c(Cl)c2)c1
- Activity [1]: 25.81%
- Activity [2]: 3.34%
- Activity [3]: 12.51%
- viability at 0.01 µM [4]: 87.1%
- viability at 0.03 µM [5]: 87.4%
- inhibition [6]: 101%
- Activity [7]: 14.08%
- Activity [8]: 66.6%
- inhibition (BaF3): Dose-dependent-effect
- IC50 [9]: 162 nM
- Activity [10]: 30.23%
- Activity [11]: 9.54%
- Activity [12]: 3.57%
- viability at 0.01 µM [13]: 86.4%
- Activity [14]: 0.03%
- Activity [15]: 23.18%
- Activity [16]: 12.78%
- Activity [17]: 0.79%
- Activity [18]: 32.33%
- IC50 [19]: 7.1 nM
- Activity [20]: 0.49%
- Activity [21]: 1.39%
- Activity [22]: 74.7%
- inhibition [23]: 98.3%
- Activity [24]: 1.87%
- Activity [25]: 13.31%
- Activity [26]: 32.17%
- Activity [27]: 0.17%
- Activity [28]: 16.09%
